{"source": "the supplement of paper PMC10307832", "test_in_all_cases": "relative viability (nuclei count vs DMSO), 5 days (fraction); higher = more cells survive", "key": {"[1]": {"system": "NCI-H1734", "procedure,_shortened": "(§1)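 Lung cancer cell lines were seeded in 1536-well plates and dosed by pin tool the next day, with either a single drug or a fixed anchor-drug dose combined with five library-drug doses (not always all listed) spaced in √10 steps. Five days later, one step fixed the cells and stained their nuclei (final 0.05% Triton X-100, 1% formaldehyde, 1 ug/ml Hoechst), and nuclei were counted on 4× images. Relative viability is the nuclei count in treated wells divided by the count in vehicle wells, and each value is the median of duplicate plates.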"}, "[2]": {"system": "SW 1573", "procedure,_shortened": "as §1"}, "[3]": {"system": "BEN", "procedure,_shortened": "as §1"}, "[4]": {"system": "HCC-44", "procedure,_shortened": "as §1"}, "[5]": {"system": "NCI-H358", "procedure,_shortened": "as §1"}, "[6]": {"system": "NCI-H1915", "procedure,_shortened": "as §1"}, "[7]": {"system": "NCI-H1755", "procedure,_shortened": "as §1"}, "[8]": {"system": "NCI-H3122", "procedure,_shortened": "as §1"}, "[9]": {"system": "NCI-H2170", "procedure,_shortened": "as §1"}, "[10]": {"system": "LU99A", "procedure,_shortened": "as §1"}, "[11]": {"system": "NCI-H650", "procedure,_shortened": "as §1"}, "[12]": {"system": "NCI-H2126", "procedure,_shortened": "as §1"}, "[13]": {"system": "NCI-H2023", "procedure,_shortened": "as §1"}, "[14]": {"system": "HOP-62", "procedure,_shortened": "as §1"}, "[15]": {"system": "EMC-BAC-2", "procedure,_shortened": "as §1"}, "[16]": {"system": "LC-2-ad", "procedure,_shortened": "as §1"}, "[17]": {"system": "NCI-H1395", "procedure,_shortened": "as §1"}, "[18]": {"system": "NCI-H727", "procedure,_shortened": "as §1"}, "[19]": {"system": "HCC-15", "procedure,_shortened": "as §1"}, "[20]": {"system": "SW 900", "procedure,_shortened": "as §1"}, "[21]": {"system": "NCI-H1437", "procedure,_shortened": "as §1"}}, "data": [{"compound": "Cc1cn(-c2cc(NC(=O)c3ccc(C)c(Nc4nccc(-c5cccnc5)n4)c3)cc(C(F)(F)F)c2)cn1", "note": "[Nilotinib] + Nc1ncn([C@H]2C[C@H](O)[C@@H](CO)O2)c(=O)n1 [Decitabine] (partner 2 µM)", "values": [{"measurement": "relative viability", "setting": "[1]; first compound 0.001 µM", "result": 0.526}, {"measurement": "relative viability", "setting": "[1]; first compound 0.003162 µM", "result": 0.605}, {"measurement": "relative viability", "setting": "[1]; first compound 0.01 µM", "result": 0.629}, {"measurement": "relative viability", "setting": "[1]; first compound 0.03162 µM", "result": 0.576}, {"measurement": "relative viability", "setting": "[1]; first compound 0.1 µM", "result": 0.455}, {"measurement": "relative viability", "setting": "[2]; first compound 0.001 µM", "result": 0.455}, {"measurement": "relative viability", "setting": "[2]; first compound 0.003162 µM", "result": 0.622}, {"measurement": "relative viability", "setting": "[2]; first compound 0.01 µM", "result": 0.924}, {"measurement": "relative viability", "setting": "[2]; first compound 0.03162 µM", "result": 0.533}, {"measurement": "relative viability", "setting": "[2]; first compound 0.1 µM", "result": 0.297}, {"measurement": "relative viability", "setting": "[3]; first compound 0.001 µM", "result": 0.787}, {"measurement": "relative viability", "setting": "[3]; first compound 0.003162 µM", "result": 0.727}, {"measurement": "relative viability", "setting": "[3]; first compound 0.01 µM", "result": 0.622}, {"measurement": "relative viability", "setting": "[3]; first compound 0.03162 µM", "result": 0.801}, {"measurement": "relative viability", "setting": "[3]; first compound 0.1 µM", "result": 0.516}, {"measurement": "relative viability", "setting": "[4]; first compound 0.001 µM", "result": 0.922}, {"measurement": "relative viability", "setting": "[4]; first compound 0.003162 µM", "result": 0.945}, {"measurement": "relative viability", "setting": "[4]; first compound 0.01 µM", "result": 0.969}, {"measurement": "relative viability", "setting": "[4]; first compound 0.1 µM", "result": 0.918}, {"measurement": "relative viability", "setting": "[5]; first compound 0.001 µM", "result": 0.214}, {"measurement": "relative viability", "setting": "[5]; first compound 0.003162 µM", "result": 0.264}, {"measurement": "relative viability", "setting": "[5]; first compound 0.01 µM", "result": 0.229}, {"measurement": "relative viability", "setting": "[5]; first compound 0.03162 µM", "result": 0.195}, {"measurement": "relative viability", "setting": "[5]; first compound 0.1 µM", "result": 0.15}, {"measurement": "relative viability", "setting": "[6]; first compound 0.001 µM", "result": 0.28}, {"measurement": "relative viability", "setting": "[6]; first compound 0.003162 µM", "result": 0.271}, {"measurement": "relative viability", "setting": "[6]; first compound 0.01 µM", "result": 0.255}, {"measurement": "relative viability", "setting": "[6]; first compound 0.03162 µM", "result": 0.318}, {"measurement": "relative viability", "setting": "[6]; first compound 0.1 µM", "result": 0.325}, {"measurement": "relative viability", "setting": "[7]; first compound 0.001 µM", "result": 0.742}, {"measurement": "relative viability", "setting": "[7]; first compound 0.003162 µM", "result": 0.81}, {"measurement": "relative viability", "setting": "[7]; first compound 0.01 µM", "result": 0.78}, {"measurement": "relative viability", "setting": "[7]; first compound 0.03162 µM", "result": 0.961}, {"measurement": "relative viability", "setting": "[7]; first compound 0.1 µM", "result": 0.846}, {"measurement": "relative viability", "setting": "[8]; first compound 0.001 µM", "result": 0.504}, {"measurement": "relative viability", "setting": "[8]; first compound 0.003162 µM", "result": 0.468}, {"measurement": "relative viability", "setting": "[8]; first compound 0.01 µM", "result": 0.505}, {"measurement": "relative viability", "setting": "[8]; first compound 0.03162 µM", "result": 0.471}, {"measurement": "relative viability", "setting": "[8]; first compound 0.1 µM", "result": 0.314}, {"measurement": "relative viability", "setting": "[9]; first compound 0.001 µM", "result": 0.488}, {"measurement": "relative viability", "setting": "[9]; first compound 0.003162 µM", "result": 0.553}, {"measurement": "relative viability", "setting": "[9]; first compound 0.01 µM", "result": 0.539}, {"measurement": "relative viability", "setting": "[9]; first compound 0.03162 µM", "result": 0.56}, {"measurement": "relative viability", "setting": "[9]; first compound 0.1 µM", "result": 0.649}, {"measurement": "relative viability", "setting": "[10]; first compound 0.001 µM", "result": 0.909}, {"measurement": "relative viability", "setting": "[10]; first compound 0.003162 µM", "result": 1.11}, {"measurement": "relative viability", "setting": "[10]; first compound 0.01 µM", "result": 0.905}, {"measurement": "relative viability", "setting": "[10]; first compound 0.03162 µM", "result": 0.999}, {"measurement": "relative viability", "setting": "[10]; first compound 0.1 µM", "result": 0.436}, {"measurement": "relative viability", "setting": "[11]; first compound 0.001 µM", "result": 0.295}, {"measurement": "relative viability", "setting": "[11]; first compound 0.003162 µM", "result": 0.379}, {"measurement": "relative viability", "setting": "[11]; first compound 0.01 µM", "result": 0.387}, {"measurement": "relative viability", "setting": "[11]; first compound 0.03162 µM", "result": 0.315}, {"measurement": "relative viability", "setting": "[11]; first compound 0.1 µM", "result": 0.306}, {"measurement": "relative viability", "setting": "[12]; first compound 0.001 µM", "result": 0.541}, {"measurement": "relative viability", "setting": "[12]; first compound 0.003162 µM", "result": 0.675}, {"measurement": "relative viability", "setting": "[12]; first compound 0.01 µM", "result": 0.564}, {"measurement": "relative viability", "setting": "[12]; first compound 0.03162 µM", "result": 0.614}, {"measurement": "relative viability", "setting": "[12]; first compound 0.1 µM", "result": 0.568}, {"measurement": "relative viability", "setting": "[13]; first compound 0.001 µM", "result": 0.245}, {"measurement": "relative viability", "setting": "[13]; first compound 0.003162 µM", "result": 0.296}, {"measurement": "relative viability", "setting": "[13]; first compound 0.01 µM", "result": 0.334}, {"measurement": "relative viability", "setting": "[13]; first compound 0.03162 µM", "result": 0.271}, {"measurement": "relative viability", "setting": "[13]; first compound 0.1 µM", "result": 0.298}, {"measurement": "relative viability", "setting": "[14]; first compound 0.003162 µM", "result": 0.276}, {"measurement": "relative viability", "setting": "[14]; first compound 0.03162 µM", "result": 0.464}, {"measurement": "relative viability", "setting": "[15]; first compound 0.001 µM", "result": 0.974}, {"measurement": "relative viability", "setting": "[15]; first compound 0.003162 µM", "result": 0.996}, {"measurement": "relative viability", "setting": "[15]; first compound 0.01 µM", "result": 1.02}, {"measurement": "relative viability", "setting": "[15]; first compound 0.03162 µM", "result": 0.94}, {"measurement": "relative viability", "setting": "[15]; first compound 0.1 µM", "result": 1}, {"measurement": "relative viability", "setting": "[16]; first compound 0.001 µM", "result": 0.8}, {"measurement": "relative viability", "setting": "[16]; first compound 0.003162 µM", "result": 0.982}, {"measurement": "relative viability", "setting": "[16]; first compound 0.01 µM", "result": 0.796}, {"measurement": "relative viability", "setting": "[16]; first compound 0.03162 µM", "result": 0.859}, {"measurement": "relative viability", "setting": "[16]; first compound 0.1 µM", "result": 0.803}, {"measurement": "relative viability", "setting": "[17]; first compound 0.001 µM", "result": 0.745}, {"measurement": "relative viability", "setting": "[17]; first compound 0.01 µM", "result": 0.798}, {"measurement": "relative viability", "setting": "[17]; first compound 0.03162 µM", "result": 0.707}, {"measurement": "relative viability", "setting": "[17]; first compound 0.1 µM", "result": 0.891}, {"measurement": "relative viability", "setting": "[18]; first compound 0.001 µM", "result": 0.67}, {"measurement": "relative viability", "setting": "[18]; first compound 0.003162 µM", "result": 0.818}, {"measurement": "relative viability", "setting": "[18]; first compound 0.01 µM", "result": 0.825}, {"measurement": "relative viability", "setting": "[18]; first compound 0.03162 µM", "result": 0.715}, {"measurement": "relative viability", "setting": "[18]; first compound 0.1 µM", "result": 0.606}, {"measurement": "relative viability", "setting": "[19]; first compound 0.001 µM", "result": 0.569}, {"measurement": "relative viability", "setting": "[19]; first compound 0.003162 µM", "result": 0.77}, {"measurement": "relative viability", "setting": "[19]; first compound 0.01 µM", "result": 0.718}, {"measurement": "relative viability", "setting": "[19]; first compound 0.03162 µM", "result": 0.481}, {"measurement": "relative viability", "setting": "[19]; first compound 0.1 µM", "result": 0.309}, {"measurement": "relative viability", "setting": "[20]; first compound 0.003162 µM", "result": 0.579}, {"measurement": "relative viability", "setting": "[20]; first compound 0.01 µM", "result": 0.724}, {"measurement": "relative viability", "setting": "[20]; first compound 0.03162 µM", "result": 0.743}, {"measurement": "relative viability", "setting": "[20]; first compound 0.1 µM", "result": 0.577}, {"measurement": "relative viability", "setting": "[21]; first compound 0.001 µM", "result": 0.562}, {"measurement": "relative viability", "setting": "[21]; first compound 0.003162 µM", "result": 0.632}, {"measurement": "relative viability", "setting": "[21]; first compound 0.01 µM", "result": 0.625}, {"measurement": "relative viability", "setting": "[21]; first compound 0.03162 µM", "result": 0.545}, {"measurement": "relative viability", "setting": "[21]; first compound 0.1 µM", "result": 0.671}]}]}
